From PMC10714400, “Antimicrobial Peptide–Peptoid Hybrids with and without Membrane Disruption” (ACS Infectious Diseases, 2023)
Converted amounts (≈) assume the structure as drawn. Where a SMILES comes first, the peptide text is derived from it. [ ]: non-standard residue; d: D form. Nleu = CC(C)CNCC(=O)O; Nlys = NCCCCNCC(=O)O

What was measured:
P. aeruginosa PA14 = details: Table S3; […] MH at pH 8.5, 16-20 hours at 37 °C
In short: (§1)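 MICs were determined by broth microdilution in MH medium, with approximately 5 × 10^5 CFU added per well and plates held at 37 °C for about 18 h without shaking.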

B. cenocepacia = details: 4 h, pH 8.5
In short: as §1

S. maltophilia = details: Table S3; […] MH at pH 8.5
In short: as §1

S. epidermis = details: Table S3; […] MH at pH 8.5
In short: as §1

S. aureus Newman = details: Table S3; […] MH at pH 8.5
In short: as §1

[1] = Circular dichroism, α-helical content; type: physicochemical; details: 0.1 mg/mL; for CD %α with 5 mM DPC: 10 mM phosphate buffer pH 7.4, 5 mM DPC; for CD %α with 20% TFE: 10 mM phosphate buffer pH 7.4, 20% TFE
[2] = system: human red blood cells (hRBC); assay: Minimum hemolytic concentration (MHC); type: cell-based
Description: We also measured minimal hemolysis concentrations (MHC) on human red blood cells by serial 2-fold dilution as an indication of toxicity against eukaryotic cells (Table 1).

[3] = system: ZEM9A (clinical MDR P. aeruginosa isolate); details: […] MH at pH 8.5
In short: as §1

PA14 4.18 (pmrB) = system: PA14 4.18 (pmrB)
In short: as §1

E. coli W3110 = system: E. coli W3110
In short: as §1

P. aeruginosa PAO1 = system: P. aeruginosa PAO1
In short: as §1

A. baumannii ATCC19606 = system: A. baumannii ATCC19606
In short: (§2)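 MTT added (20–30 min, room temperature); MIC read by eye as lowest concentration inhibiting visible growth (yellow). Polymyxin B positive control from 16 μg/mL.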

PA14 2P4 (pmrB) = system: PA14 2P4 (pmrB)
In short: as §1

[4] = system: ZEM-1A (clinical MDR P. aeruginosa isolate)
In short: as §1

PA14 4.13 (phoQ) = system: PA14 4.13 (phoQ)
In short: as §1

K. pneumoniae OXA-48 = details: […] MH at pH 8.5
In short: as §1

S. aureus COL (MRSA) = system: S. aureus COL (MRSA)
In short: as §1

K. pneumoniae NCTC418 = system: K. pneumoniae NCTC418
In short: as §2

E. cloacae = details: Table S3; […] MH at pH 8.5
In short: as §1

[5] = diluted MH ([…] MH) at pH 8.5 (Table 2 footnote b)

CC(C)C[C@H](NC(=O)CN(CC(C)C)C(=O)[C@H](CC(C)C)NC(=O)CN(CCCCN)C(=O)[C@H](CC(C)C)NC(=O)CN(CC(C)C)C(=O)[C@H](CCCCN)NC(=O)CN(CC(C)C)C(=O)[C@H](CC(C)C)NC(=O)CN(CCCCN)C(=O)[C@@H](N)CCCCN)C(N)=O [EB9, KkLlKlLkLlL] (H-K[Nlys]L[Nleu]K[Nleu]L[Nlys]L[Nleu]L-NH2)
MIC P. aeruginosa PA14 (P. aeruginosa PA14): 2 µg/mL (≈ 1.51 µM) | MIC B. cenocepacia (B. cenocepacia): >32 µg/mL | MIC S. maltophilia (S. maltophilia): 8 µg/mL (≈ 6.05 µM) | MIC S. epidermis (S. epidermis): 2 µg/mL (≈ 1.51 µM) | MIC S. aureus Newman (S. aureus Newman): 4 µg/mL (≈ 3.03 µM) | CD %α with 5 mM DPC ([1]; DichroWeb, Contin-LL): 11% | CD %α with 20% TFE ([1]; DichroWeb, Contin-LL): 13% | CD %α with 5 mM DPC ([1]; Table S2): 11% | CD %α with 20% TFE ([1]; Table S2): 13% | Hemolysis [2]: none of them showed any measurable hemolysis | MHC [2]: >2000 µg/mL | MIC P. aeruginosa ZEM9A, […] MH at pH 8.5 ([3]; CSV): 2 ug/mL | MIC P. aeruginosa ZEM9A ([3]; Table S3): 2 µg/mL (≈ 1.51 µM) | MIC P. aeruginosa PA14 4.18, […] MH at pH 8.5 (PA14 4.18 (pmrB); CSV, […] MH at pH 8.5): 6 ug/mL | MIC P. aeruginosa PA14 4.18 (PA14 4.18 (pmrB); Table S3, […] MH at pH 8.5): 4 to 8 µg/mL | MIC PA14 4.18 (pmrB) (PA14 4.18 (pmrB); [5]): 4 to 8 µg/mL | MIC E. coli W3110, […] MH at pH 7.4 (E. coli W3110; CSV, […] MH at pH 7.4): 2 ug/mL | MIC E. coli W3110, […] MH at pH 8.5 (E. coli W3110; CSV, […] MH at pH 8.5): 2 ug/mL | MIC E. coli W3110, full MH at pH 7.4 (E. coli W3110; CSV, full MH at pH 7.4): 16 ug/mL | Antibacterial activity as a function of NaCl concentration (E. coli W3110; E. coli W3110, […] MH at pH 8.5, up to 300 mM NaCl): strongly reduced | MIC E. coli W3110 […] 7.4 (E. coli W3110; Table S2, […] MH, pH 7.4): 2 µg/mL (≈ 1.51 µM) | MIC E. coli W3110 […] 8.5 (E. coli W3110; Table S2, […] MH, pH 8.5): 2 µg/mL (≈ 1.51 µM) | MIC E. coli W3110 Full MH 7.4 (E. coli W3110; Table S2, full MH, pH 7.4): 16 µg/mL (≈ 12.1 µM) | MIC E. coli W3110 Full MH 8.5 (E. coli W3110; Table S2, full MH, pH 8.5): > 32 µg/mL | Antibacterial activity as a function of NaCl concentration (P. aeruginosa PAO1; P. aeruginosa PAO1, […] MH at pH 8.5, up to 300 mM NaCl): strongly reduced | MIC P. aeruginosa PAO1, full MH at pH 7.4 (P. aeruginosa PAO1; PAO1, 4 h, pH 7.4): 32 ug/mL | MIC P. aeruginosa PAO1 […] 7.4 (P. aeruginosa PAO1; Table S2, […] MH, pH 7.4): 4 µg/mL (≈ 3.03 µM) | MIC P. aeruginosa PAO1 […] 8.5 (P. aeruginosa PAO1; Table S2, […] MH, pH 8.5): 2 µg/mL (≈ 1.51 µM) | MIC P. aeruginosa PAO1 Full MH 7.4 (P. aeruginosa PAO1; Table S2, full MH, pH 7.4): 32 µg/mL (≈ 24.2 µM) | MIC P. aeruginosa PAO1 Full MH 8.5 (P. aeruginosa PAO1; Table S2, full MH, pH 8.5): > 32 µg/mL | MIC A. baumannii ATCC19606, full MH at pH 7.4 (A. baumannii ATCC19606; ATCC19606, 4 h, pH 7.4): >32 ug/mL | MIC A. baumannii ATCC19606, full MH at pH 8.5 (A. baumannii ATCC19606; ATCC19606, 4 h, pH 8.5): >32 ug/mL | MIC A. baumannii ATCC19606 […] 7.4 (A. baumannii ATCC19606; Table S2, […] MH, pH 7.4): 16 µg/mL (≈ 12.1 µM) | MIC A. baumannii ATCC19606 […] 8.5 (A. baumannii ATCC19606; Table S2, […] MH, pH 8.5): 8 µg/mL (≈ 6.05 µM) | MIC A. baumannii ATCC19606 Full MH 7.4 (A. baumannii ATCC19606; Table S2, full MH, pH 7.4): > 32 µg/mL | MIC A. baumannii ATCC19606 Full MH 8.5 (A. baumannii ATCC19606; Table S2, full MH, pH 8.5): > 32 µg/mL | MIC P. aeruginosa PA14 2P4, […] MH at pH 8.5 (PA14 2P4 (pmrB); CSV, […] MH at pH 8.5): 4 ug/mL | MIC PA14 2P4 (pmrB) (PA14 2P4 (pmrB); [5]): 4 µg/mL (≈ 3.03 µM) | MIC P. aeruginosa ZEM-1A, […] MH at pH 8.5 ([4]; CSV, […] MH at pH 8.5): 3 ug/mL | MIC P. aeruginosa ZEM-1A ([4]; Table S3, […] MH at pH 8.5): 2 to 4 µg/mL | MIC ZEM-1A [4, 5]: 2 to 4 µg/mL | MIC P. aeruginosa PA14 4.13, […] MH at pH 8.5 (PA14 4.13 (phoQ); CSV, […] MH at pH 8.5): 2 ug/mL | MIC PA14 4.13 (phoQ) (PA14 4.13 (phoQ); [5]): 2 µg/mL (≈ 1.51 µM) | MIC K. pneumoniae OXA-48, […] MH at pH 8.5 (K. pneumoniae OXA-48; CSV): 32 ug/mL | MIC K. pneumoniae OXA-48 (K. pneumoniae OXA-48; Table S3): 32 µg/mL (≈ 24.2 µM) | MIC S. aureus COL (MRSA), full MH at pH 7.4 (S. aureus COL (MRSA); COL, 4 h, pH 7.4): >32 ug/mL | MIC S. aureus COL (MRSA), full MH at pH 8.5 (S. aureus COL (MRSA); COL, 4 h, pH 8.5): >32 ug/mL | MIC S. aureus COL (MRSA) […] 7.4 (S. aureus COL (MRSA); Table S2, […] MH, pH 7.4): 32 µg/mL (≈ 24.2 µM) | MIC S. aureus COL (MRSA) Full MH 7.4 (S. aureus COL (MRSA); Table S2, full MH, pH 7.4): > 32 µg/mL | MIC S. aureus COL (MRSA) Full MH 8.5 (S. aureus COL (MRSA); Table S2, full MH, pH 8.5): > 32 µg/mL | MIC K. pneumoniae NCTC418, full MH at pH 7.4 (K. pneumoniae NCTC418; NCTC418, 4 h, pH 7.4): >32 ug/mL | MIC K. pneumoniae NCTC418, full MH at pH 8.5 (K. pneumoniae NCTC418; NCTC418, 4 h, pH 8.5): >32 ug/mL | MIC K. pneumoniae NCTC418 […] 7.4 (K. pneumoniae NCTC418; Table S2, […] MH, pH 7.4): > 32 µg/mL | MIC K. pneumoniae NCTC418 […] 8.5 (K. pneumoniae NCTC418; Table S2, […] MH, pH 8.5): 16 µg/mL (≈ 12.1 µM) | MIC K. pneumoniae NCTC418 Full MH 7.4 (K. pneumoniae NCTC418; Table S2, full MH, pH 7.4): > 32 µg/mL | MIC K. pneumoniae NCTC418 Full MH 8.5 (K. pneumoniae NCTC418; Table S2, full MH, pH 8.5): > 32 µg/mL | MIC E. cloacae (E. cloacae): 16 µg/mL (≈ 12.1 µM)
